29 molecules from patent US10906915B2, “Substituted pyrazoloazepin-4-ones and their use as phosphodiesterase inhibitors” (LEO Pharma A/S, priority 2016, dated 2021) can be followed below.

Sequence of human PDE4D catalytic domain (Q08499 380-740 limits assumed): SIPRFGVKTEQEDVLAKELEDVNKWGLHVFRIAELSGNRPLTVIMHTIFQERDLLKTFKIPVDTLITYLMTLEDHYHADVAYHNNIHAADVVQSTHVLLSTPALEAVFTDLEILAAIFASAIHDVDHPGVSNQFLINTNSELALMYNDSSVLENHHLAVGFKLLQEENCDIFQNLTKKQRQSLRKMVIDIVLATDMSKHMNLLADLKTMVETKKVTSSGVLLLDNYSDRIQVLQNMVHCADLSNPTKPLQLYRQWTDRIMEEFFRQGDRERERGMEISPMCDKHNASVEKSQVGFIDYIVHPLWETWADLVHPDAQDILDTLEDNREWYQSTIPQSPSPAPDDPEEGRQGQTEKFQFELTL

The target in the test is human PDE4D catalytic domain (UniProt no. Q08499) (Homo sapiens (Human), UniProt Q08499). The experiment in a line: PDE4 assay (TR-FRET, FAM-cAMP cleavage). In kind it is biochemical. As to conditions: human PDE4D catalytic domain; molar concentration giving 50% inhibition of substrate cleavage; read-out: PDE4 IC50 range. The method in brief:
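PDE4D catalytic domain ([…]) was incubated with unlabelled cAMP plus FAM-cAMP and titrated compound, stopped with binding buffer of metal-ion nanoparticles and Tb donor. AMP generation read by TR-FRET; IC50 as 50% inhibition of cleavage versus controls, reported as nM ranges.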
On the technique in general: In TR-FRET formats the signal depends on donor and acceptor labels being close together.
By IC50 is commonly meant the concentration that inhibits the measured activity by half. Consider `CCc1nn(CCCOC(=O)c2cc(C(F)(F)F)ccc2F)c2c1C(=O)NCC1(CCOCC1)C2` [Example 112, 3-(3-ethyl-4-oxo-spiro[6,8-dihydro-5H-pyrazolo[4,3-c]azepine-7,4′-tetrahydropyran]-1-yl)propyl 2-fluoro-5-(trifluoromethyl)benzoate], for which the half-inhibitory concentration (IC50) was below 100 nM. For `CCc1nn(CCCOC(=O)c2ccc(C(F)(F)F)cc2F)c2c1C(=O)NCC1(CCOCC1)C2` [Example 113, 3-(3-ethyl-4-oxo-spiro[6,8-dihydro-5H-pyrazolo[4,3-c]azepine-7,4′-tetrahydropyran]-1-yl)propyl 2-fluoro-4-(trifluoromethyl)benzoate], the IC50 was below 100 nM.

On to `CCc1nn(CCCOC(=O)c2cccc(S(=O)(=O)CC)c2)c2c1C(=O)NCC1(CCOCC1)C2` [Example 114, 3-(3-ethyl-4-oxo-spiro[6,8-dihydro-5H-pyrazolo[4,3-c]azepine-7,4′-tetrahydropyran]-1-yl)propyl 3-ethylsulfonylbenzoate], for which the 50% inhibitory concentration (IC50) was below 100 nM. For the molecule `CCc1nn(CCCOC(=O)c2ccc(S(=O)(=O)CC)cc2)c2c1C(=O)NCC1(CCOCC1)C2` [Example 115, 3-(3-ethyl-4-oxo-spiro[6,8-dihydro-5H-pyrazolo[4,3-c]azepine-7,4′-tetrahydropyran]-1-yl)propyl 4-ethylsulfonylbenzoate], the half-inhibitory concentration (IC50) was below 100 nM. For `CCc1nn(CCCOC(=O)c2cccc(S(=O)(=O)NC)c2)c2c1C(=O)NCC1(CCOCC1)C2` [Example 116, 3-(3-ethyl-4-oxo-spiro[6,8-dihydro-5H-pyrazolo[4,3-c]azepine-7,4′-tetrahydropyran]-1-yl)propyl 3-(methylsulfamoyl) benzoate], the IC50 is below 100 nM. In the case of `CCc1nn(CCCOC(=O)c2ccc(S(=O)(=O)NC)cc2)c2c1C(=O)NCC1(CCOCC1)C2` [Example 117, 3-(3-ethyl-4-oxo-spiro[6,8-dihydro-5H-pyrazolo[4,3-c]azepine-7,4′-tetrahydropyran]-1-yl)propyl 4-(methylsulfamoyl) benzoate] it was below 100 nM.

In the case of `CCc1nn(CCCOC(=O)c2ccc(OC)c(C(F)(F)F)c2)c2c1C(=O)NCC1(CCOCC1)C2` [Example 118, 3-(3-ethyl-4-oxo-spiro[6,8-dihydro-5H-pyrazolo[4,3-c]azepine-7,4′-tetrahydropyran]-1-yl)propyI 4-methoxy-3-(trifluoromethyl)benzoate], the IC50 is below 100 nM. In the case of `CCc1nn(CCCOC(=O)c2cc(OC)ccc2C(F)(F)F)c2c1C(=O)NCC1(CCOCC1)C2` [Example 119, 3-(3-ethyl-4-oxo-spiro[6,8-dihydro-5H-pyrazolo[4,3-c]azepine-7,4′-tetrahydropyran]-1-yl)propyl 5-methoxy-2-(trifluoromethyl)benzoate] it was below 100 nM; in that of `CCc1nn(CCCOC(=O)c2cc(OC)cc(C(F)(F)F)c2)c2c1C(=O)NCC1(CCOCC1)C2` [Example 120, 3-(3-ethyl-4-oxo-spiro[6,8-dihydro-5H-pyrazolo[4,3-c]azepine-7,4′-tetrahydropyran]-1-yl)propyl 3-methoxy-5-(trifluoromethyl)benzoate], below 100 nM. For the molecule `CCc1nn(CCCOC(=O)c2ccc(Cl)cc2C(F)(F)F)c2c1C(=O)NCC1(CCOCC1)C2` [Example 121, 3-(3-ethyl-4-oxo-spiro[6,8-dihydro-5H-pyrazolo[4,3-c]azepine-7,4′-tetrahydropyran]-1-yl)propyl 4-chloro-2-(trifluoromethyl)benzoate], the IC50 is below 100 nM.

With `CCc1nn(CCCOC(=O)c2ccc(Cl)c(C(F)(F)F)c2)c2c1C(=O)NCC1(CCOCC1)C2` [Example 122, 3-(3-ethyl-4-oxo-spiro[6,8-dihydro-5H-pyrazolo[4,3-c]azepine-7,4′-tetrahydropyran]-1-yl)propyl 4-chloro-3-(trifluoromethyl)benzoate], the IC50 was below 100 nM. In the case of `CCc1nn(CCCOC(=O)c2cccc(C(F)(F)F)c2Cl)c2c1C(=O)NCC1(CCOCC1)C2` [Example 123, 3-(3-ethyl-4-oxo-spiro[6,8-dihydro-5H-pyrazolo[4,3-c]azepine-7,4′-tetrahydropyran]-1-yl)propyl 2-chloro-3-(trifluoromethyl)benzoate] it was below 100 nM; in that of `CCc1nn(CCCOC(=O)c2cc(Cl)ccc2C(F)(F)F)c2c1C(=O)NCC1(CCOCC1)C2` [Example 124, 3-(3-ethyl-4-oxo-spiro[6,8-dihydro-5H-pyrazolo[4,3-c]azepine-7,4′-tetrahydropyran]-1-yl)propyl 5-chloro-2-(trifluoromethyl)benzoate], below 100 nM; in that of `CCc1nn(CCCOC(=O)c2ccc(C(F)(F)F)c(Cl)c2)c2c1C(=O)NCC1(CCOCC1)C2` [Example 125, 3-(3-ethyl-4-oxo-spiro[6,8-dihydro-5H-pyrazolo[4,3-c]azepine-7,4′-tetrahydropyran]-1-yl)propyl 3-chloro-4-(trifluoromethyl)benzoate], below 100 nM. With `CCc1nn(CCCOC(=O)c2ccc(C(F)(F)F)cc2Cl)c2c1C(=O)NCC1(CCOCC1)C2` [Example 126, 3-(3-ethyl-4-oxo-spiro[6,8-dihydro-5H-pyrazolo[4,3-c]azepine-7,4′-tetrahydropyran]-1-yl)propyl 2-chloro-4-(trifluoromethyl)benzoate], the IC50 was below 100 nM. Consider `CCc1nn(CCCOC(=O)c2cc(Cl)cc(C(F)(F)F)c2)c2c1C(=O)NCC1(CCOCC1)C2` [Example 127, 3-(3-ethyl-4-oxo-spiro[6,8-dihydro-5H-pyrazolo[4,3-c]azepine-7,4′-tetrahydropyran]-1-yl)propyl 3-chloro-5-(trifluoromethyl)benzoate], for which the IC50 is below 100 nM. In the case of `CCc1nn(CCCOC(=O)c2cc(C(F)(F)F)ccc2Cl)c2c1C(=O)NCC1(CCOCC1)C2` [Example 128, 3-(3-ethyl-4-oxo-spiro[6,8-dihydro-5H-pyrazolo[4,3-c]azepine-7,4′-tetrahydropyran]-1-yl)propyl 2-chloro-5-(trifluoromethyl)benzoate] it was below 100 nM; in that of `CCc1nn(CCCOC(=O)c2cccc(S(=O)(=O)C(C)C)c2)c2c1C(=O)NCC1(CCOCC1)C2` [Example 129, 3-(3-ethyl-4-oxo-spiro[6,8-dihydro-5H-pyrazolo[4,3-c]azepine-7,4′-tetrahydropyran]-1-yl)propyl 3-isopropylsulfonylbenzoate], below 100 nM. On to `CCc1nn(CCCOC(=O)c2ccc(S(=O)(=O)C(C)C)cc2)c2c1C(=O)NCC1(CCOCC1)C2` [Example 130, 3-(3-ethyl-4-oxo-spiro[6,8-dihydro-5H-pyrazolo[4,3-c]azepine-7,4′-tetrahydropyran]-1-yl)propyl 4-isopropylsulfonylbenzoate], for which the half-maximal inhibitory concentration (IC50) was below 100 nM. In the case of `CCc1nn(CCCOC(=O)c2ccc(S(=O)(=O)N(C)C)cc2)c2c1C(=O)NCC1(CCOCC1)C2` [Example 131, 3-(3-ethyl-4-oxo-spiro[6,8-dihydro-5H-pyrazolo[4,3-c]azepine-7,4′-tetrahydropyran]-1-yl)propyl 4-(dimethylsulfamoyl) benzoate] it was below 100 nM. In the case of `CCc1nn(CCCOC(=O)c2ccc(S(=O)(=O)C3CCCC3)cc2)c2c1C(=O)NCC1(CCOCC1)C2` [Example 132, 3-(3-ethyl-4-oxo-spiro[6,8-dihydro-5H-pyrazolo[4,3-c]azepine-7,4′-tetrahydropyran]-1-yl)propyl 4-cyclopentylsulfonyl-benzoate], the half-maximal inhibitory concentration (IC50) was in the range of 100 to 500 nM.

Regarding `CCc1nn(CCCOC(=O)c2ccc(C(F)(F)F)cc2C(F)(F)F)c2c1C(=O)NCC1(CCOCC1)C2` [Example 135, 3-(3-ethyl-4-oxo-spiro[6,8-dihydro-5H-pyrazolo[4,3-c]azepine-7,4′-tetrahydropyran]-1-yl)propyl 2,4-bis(trifluoromethyl) benzoate], the IC50 was below 100 nM. Take `CCc1nn(CCCOC(=O)c2ccc(C(F)(F)F)c(C(F)(F)F)c2)c2c1C(=O)NCC1(CCOCC1)C2` [Example 136, 3-(3-ethyl-4-oxo-spiro[6,8-dihydro-5H-pyrazolo[4,3-c]azepine-7,4′-tetrahydropyran]-1-yl)propyl 3,4-bis(trifluoromethyl) benzoate]: the half-maximal inhibitory concentration (IC50) is below 100 nM.

Take `CCc1nn(CCCOC(=O)c2ccc(C(N)=O)cc2)c2c1C(=O)NCC1(CCOCC1)C2` [Example 140, 3-(3-ethyl-4-oxo-spiro[6,8-dihydro-5H-pyrazolo[4,3-c]azepine-7,4′-tetrahydropyran]-1-yl)propyl 4-carbamoylbenzoate]: the IC50 is below 100 nM. On to `CCc1nn(CCCOC(=O)c2ccc(C(=O)NC)cc2)c2c1C(=O)NCC1(CCOCC1)C2` [Example 141, 3-(3-ethyl-4-oxo-spiro[6,8-dihydro-5H-pyrazolo[4,3-c]azepine-7,4′-tetrahydropyran]-1-yl)propyl 4-(methylcarbamoyl)benzoate], for which the IC50 is below 100 nM. In the case of `CCNC(=O)c1ccc(C(=O)OCCCn2nc(CC)c3c2CC2(CCOCC2)CNC3=O)cc1` [Example 142, 3-(3-ethyl-4-oxo-spiro[6,8-dihydro-5H-pyrazolo[4,3-c]azepine-7,4′-tetrahydropyran]-1-yl)propyl 4-(ethylcarbamoyl)benzoate] it was below 100 nM. On to `CCc1nn(CCCOC(=O)c2ccc(C(=O)N(C)C)cc2)c2c1C(=O)NCC1(CCOCC1)C2` [Example 143, 3-(3-ethyl-4-oxo-spiro[6,8-dihydro-5H-pyrazolo[4,3-c]azepine-7,4′-tetrahydropyran]-1-yl)propyl 4-(dimethylcarbamoyl)-benzoate], for which the 50% inhibitory concentration (IC50) fell in the range of 100 to 500 nM. With `CCc1nn(CCCOC(=O)c2ccc(C(=O)NC(C)C)cc2)c2c1C(=O)NCC1(CCOCC1)C2` [Example 144, 3-(3-ethyl-4-oxo-spiro[6,8-dihydro-5H-pyrazolo[4,3-c]azepine-7,4′-tetrahydropyran]-1-yl)propyl 4-(isopropylcarbamoyl)-benzoate], the concentration for half-maximal inhibition (IC50) is below 100 nM. As to `CCc1nn(CCCOC(=O)c2ccc(C(=O)N3CCCC3)cc2)c2c1C(=O)NCC1(CCOCC1)C2` [Example 145, 3-(3-ethyl-4-oxo-spiro[6,8-dihydro-5H-pyrazolo[4,3-c]azepine-7,4′-tetrahydropyran]-1-yl)propyl 4-(pyrrolidine-1-carbonyl)benzoate], the half-maximal inhibitory concentration (IC50) fell in the range of 100 to 500 nM.
